Counter-ions that a name gives are not always drawn.

We go through 13 molecules from US8486948B2, “Piperazinodihydrothienopyrimidine derivatives” (Boehringer Ingelheim International GmbH, priority 2007, dated 2013).

Chain of PDE4B (Q07343 whole entry, species assumed): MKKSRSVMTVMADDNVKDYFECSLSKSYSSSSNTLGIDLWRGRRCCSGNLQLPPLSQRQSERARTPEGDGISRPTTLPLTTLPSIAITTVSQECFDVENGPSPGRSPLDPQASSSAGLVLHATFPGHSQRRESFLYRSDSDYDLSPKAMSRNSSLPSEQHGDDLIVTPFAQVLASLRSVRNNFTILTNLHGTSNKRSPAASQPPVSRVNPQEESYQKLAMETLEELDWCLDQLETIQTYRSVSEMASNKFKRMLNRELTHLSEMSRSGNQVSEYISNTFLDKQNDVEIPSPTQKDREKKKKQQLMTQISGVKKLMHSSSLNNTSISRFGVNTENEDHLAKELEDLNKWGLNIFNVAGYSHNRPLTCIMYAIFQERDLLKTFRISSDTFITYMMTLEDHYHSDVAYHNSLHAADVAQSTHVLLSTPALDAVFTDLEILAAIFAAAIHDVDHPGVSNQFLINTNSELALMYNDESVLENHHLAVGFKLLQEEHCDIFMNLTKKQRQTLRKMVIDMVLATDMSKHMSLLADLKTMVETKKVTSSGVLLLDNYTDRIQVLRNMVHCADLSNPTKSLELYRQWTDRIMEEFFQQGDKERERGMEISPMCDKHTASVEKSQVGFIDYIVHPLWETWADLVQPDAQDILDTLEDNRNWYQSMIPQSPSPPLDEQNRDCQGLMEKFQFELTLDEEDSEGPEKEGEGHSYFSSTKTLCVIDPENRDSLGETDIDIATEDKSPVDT

One experiment has as its target PDE4B (Homo sapiens, UniProt Q07343). Nature of the experiment: Scintillation Proximity (SPA) assay, inhibition of PDE4B at 1 μM. The note with it: Table A; test substance 1 μM; one hour incubation with [H3]-cAMP at 30° C. It counts as biochemical. On the procedure: The inhibitions (in %) at 1 μM of the individual Example substances are included in the following Tables of Examples and were determined as follows:
The Scintilation Proximity (SPA) Assays (GE Healthcare, No. TRKQ7090) make use of the different affinities of cyclic 3″-5″-adenosine monophosphate (cAMP, low affinity) and linear 5′-adenosine monophosphate (AMP, high affinity) for yttrium silicate scintillator beads. The cAMP specific phosphodiesterase (PDE) PDE4B cleaves the 3′-phosphoester bond of the tritium-labelled [H3]-cAMP to form the [H3]-5′-AMP. Because of its higher affinity for the scintillator beads this [H3]-AMP accumulates on the beads and causes scintillation events (flashes of light) which are measured in a Wallac Microbeta Scintillation Counter.
The test starts with one hour's incubation of [H3]-cAMP with the PDE4B enzyme in assay buffer at 30° C., once with the Example substance that is to be tested (in a concentration of 1 μM) and once without the Example substance that is to be tested. After this incubation the reaction is stopped by the addition of the beads. The beads are given an opportunity to settle over the next 45 minutes, then they are measured in the Scintillation Counter. If the substance is capable of inhibiting the enzymatic activity of the PDE4B, less [H3]-AMP is formed during the incubation phase and fewer scintillation events can be measured.
Background: SPA uses beads or plates that emit light when radiolabelled molecules are held near them.
As a reminder, the inhibition is the change of the read-out against control, counted positive when it falls. For `CN1C[C@@H](Nc2nc(N3C[C@H]4CC3CN4c3ccc(Cl)cc3)nc3c2[S+]([O-])CC3)CCC1=O` (stereo partly drawn) [Example 9, (S)-5-{2-[5-(4-chlorophenyl)-2,5-diazabicyclo[2,2,1]hept-2-yl]-5-oxo-6,7-dihydro-5H-5λ^4-thieno[3,2-d]pyrimidin-4-ylamino}-1-methylpiperidin-2-one], 1 µM produced 96% inhibition. Consider `O=C1CN(c2nc3c(c(NC4CCOCC4)n2)[S+]([O-])CC3)CCN1c1ccc(Br)cc1` (stereo not shown) [Example 12], for which 1 µM produced 93% inhibition.

`CC(C)[C@H](CO)Nc1nc(N2CCN(c3ccc(Cl)cc3)C[C@H]2C)nc2c1[S+]([O-])CC2` (stereo partly drawn) [Example 1, (R)-2-{2-[(R)-4-(4-chlorophenyl)-2-methylpiperazin-1-yl]-5-oxo-6,7-dihydro-5H-5λ^4-thieno[3,2-d]pyrimidin-4-ylamino}-3-methylbutan-1-ol]: testing at 1 µM gave an inhibition of 84%. The molecule `[O-][S+]1CCc2nc(N3CC4CC3CN4c3ccc(Cl)cc3)nc(Nc3cccc(F)c3)c21` (stereo not shown) [Example 7] yielded an inhibition at 1 µM of 95%. For `CN1C[C@@H](Nc2nc(N3CCN(c4ccccc4)C(=O)C3)nc3c2[S+]([O-])CC3)CCC1=O` (stereo partly shown) [Example 17], the inhibition at 1 µM was determined as 96%.

Take `[O-][S+]1CCc2nc(N3CC4CC3CN4c3ccc(Br)cc3)nc(NC3(CO)CC3)c21` (stereo not shown) [Example 22]: testing at 1 µM gave an inhibition of 95%.

Staying with this experiment, now noted: Table C; test substance 1 μM; one hour incubation with [H3]-cAMP at 30° C.
As for `[O-][S+]1CCc2nc(N3CCn4c(nnc4-c4ccc(F)cc4)C3)nc(NC3(CO)CC3)c21` (stereo not shown) [Example 31], the inhibition at 1 µM was 93%. `CCOC(=O)c1cn2c(n1)CN(c1nc3c(c(NC4(CO)CC4)n1)[S+]([O-])CC3)CC2` (stereo not shown) [Example 30] had an inhibition at 1 µM of 95%. As for `CC(C)[C@H](CO)Nc1nc(N2CCn3cnnc3C2)nc2c1[S+]([O-])CC2` (stereo partly drawn) [Example 45, (R)-2-[2-(5,6-DIHYDRO-8H-[1,2,4]TRIAZOLO[4,3-A]PYRAZIN-7-YL)-5-OXO-6,7-DIHYDRO-5H-5λ^4-THIENO[3,2-D]PYRIMIDIN-4-YLAMINO]-3-METHYL-BUTAN-1-OL TRIFLUOROACETATE], the inhibition at 1 µM came out at 55%.

Still in this experiment, the particulars now being: Table D; test substance 1 μM; one hour incubation with [H3]-cAMP at 30° C.
For the molecule `Cc1nn(C)c(C)c1CNC(=O)c1cn2c(n1)CN(c1nc3c(c(NC4CCOCC4)n1)[S+]([O-])CC3)CC2` (stereo not shown) [Example 51], testing at 1 µM gave an inhibition of 94%. For `Cc1nn(C)cc1C(C)NC(=O)c1cn2c(n1)CN(c1nc3c(c(NC4CCOCC4)n1)[S+]([O-])CC3)CC2` (stereo not shown) [Example 52], 1 µM produced 93% inhibition. Regarding `Cc1nn(C)cc1CNC(=O)c1cn2c(n1)CN(c1nc3c(c(NC4CCOCC4)n1)[S+]([O-])CC3)CC2` (stereo not shown) [Example 57], the inhibition at 1 µM amounted to 94%.

`CCOC(=O)c1cn2c(n1)CN(c1nc3c(c(N[C@H]4CCC(=O)N(C)C4)n1)[S+]([O-])CC3)CC2` (stereo partly shown) [Example 46]: testing at 1 µM gave an inhibition of 97%.
